Where a name gives a salt, the structure may show the parent alone.

A short description of the assay: Human primary T-cell proliferation stimulated by IL-2 (CellTiter-Glo). The format is cell-based. As to conditions: primary human T-cells, IL-2 stimulated proliferation, 72 hours, ATP readout; read-out: Activity (IC50, inhibition of JAK3 activity). The source says:
One means of assaying for such inhibition is detection of the effect of the 2,4-substituted pyrimidinediamine compounds on the upregulation of downstream gene products. For example, the activity of the disclosed compounds may be characterized by assaying the effect of the 2,4-substituted pyrimidinediamine compounds described herein on the proliferative response of primary human T-cells. In this assay, primary human T-cells derived from peripheral blood and pre-activated through stimulation of the T-cell receptor and CD28, proliferate in culture in response to the cytokine Interleukin-2 (IL-2). This proliferative response is dependent on the activation of JAK1 and JAK3 tyrosine kinases, which phosphorylate and activate the transcription factor Stat-5. The primary human T-cells are incubated with the 2,4-substituted pyrimidinediamine compounds in the presence of IL-2 for 72 hours and at the assay endpoint intracellular ATP concentrations are measured to assess cell viability. A reduction in cell proliferation compared to control conditions is indicative of inhibition of the JAK kinase pathway.
Primary human T-cells derived from peripheral blood and pre-activated through stimulation of the T-cell receptor and CD28, proliferate in vitro in response to the cytokine Interleukin-2 (IL-2). This proliferative response is dependent on the activation of JAK-1 and JAK-3 tyrosine kinases, which phosphorylate and activate the transcription factor Stat-5.
Human primary T-cells were prepared as follows. Whole blood was obtained from a healthy volunteer, mixed 1:1 with PBS, layered on to Ficoll Hypaque (Amersham Pharmacia Biotech, Piscataway, N.J., Catalog #17-1440-03) in 2:1 blood/PBS:ficoll ratio and centrifuged for 30 min at 4° C. at 1750 rpm. The lymphocytes at the serum: ficoll interface were recovered and washed twice with 5 volumes of PBS. The cells were resuspended in Yssel's medium (Gemini Bio-products, Woodland, Calif., Catalog #400-103) containing 40 U/mL recombinant IL2 (R and D Systems, Minneapolis, Minn., Catalog #202-IL (20 μg)) and seeded into a flask pre-coated with 1 μg/mL anti-CD3 (BD Pharmingen, San Diego, Calif., Catalog #555336) and 5 μg/mL anti-CD28 (Immunotech, Beckman Coulter of Brea Calif., Catalog #IM1376). The primary T-cells were stimulated for 3-4 days, then transferred to a fresh flask and maintained in RPMI with 10% FBS and 40 U/mL IL-2.
The day prior to the assay set up, primary T-cells were centrifuged and resuspended in fresh RPMI with 10% FBS but without IL-2 and starved overnight. For the assay, the primary T-cells were centrifuged and resuspended Yssel's medium at 2×10^6 cells/mL. 50 μL of cell suspension containing 80 U/mL IL-2 was added to each well of a flat bottom 96 well black plate. For the unstimulated control, IL-2 was omitted from the last column on the plate. Compounds were serially diluted in dimethyl sulfoxide (DMSO, 99.7% pure, cell culture tested, Sigma-Aldrich, St. Louis, Mo., Catalog No. D2650) from 5 mM in 3-fold dilutions, and then diluted 1:250 in Yssel's medium. 50 μL of 2× compound was added per well in duplicate and the cells were allowed to proliferate for 72 hours at 37° C.
Proliferation was measured using CellTiter-Glo® Luminescent Cell Viability Assay (Promega), which determines the number of viable cells in culture based on quantitation of the ATP present, as an indicator of metabolically active cells. The substrate was thawed and allowed to come to ambient temperature. After mixing the Cell Titer-Glo reagent and diluent together, 100 μL was added to each well. The plates were mixed on an orbital shaker for two minutes to induce lysis and incubated at ambient temperature for an additional ten minutes to allow the signal to equilibrate. Detection was performed using a Wallac Victor2 1420 multilabel counter purchased from Perkin Elmer, Shelton, Conn.
A general note: ATP-based viability assays read luminescence as a measure of living cells.
Take `Cc1cnc(Nc2ccc3cnoc3c2)nc1Nc1ccc2oc(=O)[nH]c2c1` [Compound A12, 5-(2-(benzo[d]isoxazol-6-ylamino)-5-methylpyrimidin-4-ylamino)benzo[d]oxazol-2(3H)-one]: the concentration for half-maximal inhibition (IC50) was below 500 nM.

Regarding `Cc1cnc(Nc2cc(C)c(C)c(C)c2)nc1Nc1ccc2oc(=O)[nH]c2c1` [Compound A1, N2-(3,4,5-trimethyl)phenyl-5-methyl-N4-(2-oxo-2,3-dihydro-1,3-benzoxazol-5-yl)-2,4-pyrimidinediamine], the IC50 is below 500 nM.

Take `COc1cc(Nc2ncc(C)c(Nc3ccc4oc(=O)n(COP(=O)(O)O)c4c3)n2)cc(C)c1F` [Compound A16, Sodium (5-(2-(4-fluoro-3-methoxy-5-methylphenylamino)-5-methylpyrimidin-4-ylamino)-2-oxobenzo[d]oxazol-3(2H)-yl)methyl phosphate]: the IC50 lay within 500 to 5000 nM.

Turning to `COc1cc(Nc2ncc(C)c(Nc3ccc4oc(=O)[nH]c4c3)n2)cc(Cl)c1OC` [Compound A11, 5-(2-(3-chloro-4,5-dimethoxyphenylamino)-5-methylpyrimidin-4-ylamino)benzo[d]oxazol-2(3H)-one], the IC50 is below 500 nM.

Take `COc1cc(Nc2ncc(C)c(Nc3ccc4oc(=O)n(COP(=O)(O)O)c4c3)n2)cc(C(F)(F)F)c1` [Compound A15, N2-(3-methoxy-5-trifluoromethyl)phenyl-5-methyl-N4-[3-(phosphonooxy)methyl-2-oxo-2,3-dihydro-1,3-benzoxazol-5-yl]-2,4-pyrimidinediamine bis-sodium salt]: the 50% inhibitory concentration (IC50) is 500 to 5000 nM.

For `COc1cc(Nc2ncc(C)c(Nc3ccc4oc(=O)[nH]c4c3)n2)cc(C)c1F` [Compound I-432, 5-(2-(4-fluoro-3-methoxy-5-methylphenylamino)-5-methylpyrimidin-4-ylamino)benzo[d]oxazol-2(3H)-one], the 50% inhibitory concentration (IC50) was below 500 nM.

Take `Cc1cc(CF)cc(Nc2ncc(C)c(Nc3ccc4oc(=O)[nH]c4c3)n2)c1` [Compound A7, 5-(2-(3-(fluoromethyl)-5-methylphenylamino)-5-methylpyrimidin-4-ylamino)benzo[d]oxazol-2(3H)-one]: the half-inhibitory concentration (IC50) is below 500 nM.

For the compound `Cc1cnc(Nc2ccc(C(N)=O)cc2)nc1Nc1ccc2oc(=O)[nH]c2c1` [Compound A3, N4-(benzo[d]oxazol-2(3H)-on-5-yl)-N2-(4-aminocarbonylphenyl)-5-methylpyrimidine-2,4-diamine], the IC50 is below 500 nM.

Consider `Cc1cnc(Nc2cc(C)c(C)c(C)c2)nc1Nc1ccc2oc(=O)n(COP(=O)(O)O)c2c1` [Compound A17, 5-methyl-N4-[3-(phosphonooxy)methyl-2-oxo-2,3-dihydro-1,3-benzoxazol-5-yl]-N2-(3,4,5-trimethyl)phenyl-2,4-pyrimidinediamine bis-sodium salt], for which the half-inhibitory concentration (IC50) lay in the range of 500 to 5000 nM.

On to `Cc1cnc(Nc2cc(C)c(F)c(C)c2)nc1Nc1ccc2oc(=O)[nH]c2c1` [Compound A14, N2-(3,5-dimethyl-4-fluoro)phenyl-5-methyl-N4-(2-oxo-2,3-dihydro-1,3-benzoxazol-5-yl)-2,4-pyrimidinediamine], for which the half-inhibitory concentration (IC50) was below 500 nM.

As to `Cc1cnc(Nc2ccc(C(=O)NC3CCC3)cc2)nc1Nc1ccc2oc(=O)[nH]c2c1` [Compound A5, N-cyclobutyl-4-[5-methyl-4-(2-oxo-2,3-dihydro-benzooxazol-5-ylamino)-pyrimidin-2-ylamino]-benzamide], the half-maximal inhibitory concentration (IC50) was below 500 nM.

For `Cc1cnc(Nc2cc(C)c(F)c(C)c2)nc1Nc1ccc2oc(=O)n(COP(=O)(O)O)c2c1` [Compound A18, N2-(3,5-dimethyl-4-fluoro)phenyl-5-methyl-N4-[3-(phosphonooxy)methyl-2-oxo-2,3-dihydro-1,3-benzoxazol-5-yl]-2,4-pyrimidinediamine bis-sodium salt], the concentration for half-maximal inhibition (IC50) lay within 500 to 5000 nM.

For `Cc1ccc(Nc2ncc(C)c(Nc3ccc4oc(=O)[nH]c4c3)n2)cc1C` [Compound A10, 5-[2-(3,4-dimethyl-phenylamino)-5-methyl-pyrimidin-4-ylamino]-3H-benzooxazol-2-one], the IC50 is below 500 nM.

In the case of `Cc1ccc(Nc2ncc(C)c(Nc3ccc4oc(=O)[nH]c4c3)n2)cc1F` [Compound A8, N2-(3-fluoro-4-methyl)phenyl-5-methyl-N4-(2-oxo-2,3-dihydro-1,3-benzoxazol-5-yl)-2,4-pyrimidinediamine], the IC50 is below 500 nM.

As for `Cc1cnc(Nc2ccc(C(=O)Nc3ccccc3)cc2)nc1Nc1ccc2oc(=O)[nH]c2c1` [Compound A2, 4-[5-methyl-4-(2-oxo-2,3-dihydro-benzoxazol-5-ylamino)-pyrimidin-2-ylamino]-N-phenyl-benzamide], the half-inhibitory concentration (IC50) is below 500 nM.

For orientation: IC50 means the concentration that gives 50% inhibition.

(Values after patent US11220496B2, “Compounds and method for treating autoimmune diseases” (Rigel Pharmaceuticals, Inc., priority 2013, dated 2022).)
